In PubChem BioAssay (NCI):
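Briefly, cells in 96-well plates were exposed to five compound concentrations for 48 h, and endpoints were estimated by linear interpolation. GI50 = concentration required for 50% inhibition of growth. Definition used: TGI = concentration required for complete inhibition of growth.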

What was measured:
Assay in all cases: inhibition of tumour cell growth, NCI panel, 48 h
SW-620 colon = system: SW-620 colon
HT29 colon = system: HT29 colon
HCC-2998 colon = system: HCC-2998 colon
SF-268 CNS = system: SF-268 CNS
BT-549 breast = system: BT-549 breast
IGROV1 ovarian = system: IGROV1 ovarian
HOP-62 NSCLC = system: HOP-62 NSCLC
RXF 393 renal = system: RXF 393 renal
OVCAR-5 ovarian = system: OVCAR-5 ovarian
MOLT-4 leukemia = system: MOLT-4 leukemia
PC-3 prostate = system: PC-3 prostate
HCT-116 colon = system: HCT-116 colon
SNB-19 CNS = system: SNB-19 CNS
KM12 colon = system: KM12 colon
EKVX NSCLC = system: EKVX NSCLC
RPMI-8226 leukemia = system: RPMI-8226 leukemia
HL-60(TB) leukemia = system: HL-60(TB) leukemia
HOP-92 NSCLC = system: HOP-92 NSCLC
SK-OV-3 ovarian = system: SK-OV-3 ovarian
UO-31 renal = system: UO-31 renal
K-562 leukemia = system: K-562 leukemia
NCI-H23 lung = system: NCI-H23 lung
786-0 renal = system: 786-0 renal
M14 melanoma = system: M14 melanoma
A498 renal = system: A498 renal
CCRF-CEM leukemia = system: CCRF-CEM leukemia
MDA-MB-231 breast = system: MDA-MB-231 breast
OVCAR-3 ovarian = system: OVCAR-3 ovarian
SN12C renal = system: SN12C renal
MDA-MB-435 = system: MDA-MB-435
HS 578T breast = system: HS 578T breast
OVCAR-4 ovarian = system: OVCAR-4 ovarian
UACC-257 melanoma = system: UACC-257 melanoma
NCI/ADR-RES ovarian = system: NCI/ADR-RES ovarian
SK-MEL-28 melanoma = system: SK-MEL-28 melanoma
COLO 205 colon = system: COLO 205 colon
DU-145 prostate = system: DU-145 prostate
SK-MEL-2 melanoma = system: SK-MEL-2 melanoma
UACC-62 melanoma = system: UACC-62 melanoma
SNB-75 CNS = system: SNB-75 CNS
CAKI-1 renal = system: CAKI-1 renal
TK-10 renal = system: TK-10 renal
ACHN renal = system: ACHN renal
NCI-H460 lung = system: NCI-H460 lung
HCT-15 colon = system: HCT-15 colon
SF-539 CNS = system: SF-539 CNS
T-47D breast = system: T-47D breast
MALME-3M melanoma = system: MALME-3M melanoma
OVCAR-8 ovarian = system: OVCAR-8 ovarian
MCF7 breast = system: MCF7 breast
A549 NSCLC = system: A549 NSCLC
U251 CNS = system: U251 CNS
LOX IMVI melanoma = system: LOX IMVI melanoma
NCI-H522 lung = system: NCI-H522 lung
NCI-H226 lung = system: NCI-H226 lung
SR leukemia = system: SR leukemia
SK-MEL-5 melanoma = system: SK-MEL-5 melanoma
SF-295 CNS = system: SF-295 CNS

## COc1ccc2[nH]c3c(C)c4ccnc(NCCCN(C)CCCNC(=O)NCCCN(C)CCCNc5nccc6c(C)c7[nH]c8ccc(OC)cc8c7c(C)c56)c4c(C)c3c2c1
SW-620 colon
  TGI: 1.3 µM
HT29 colon
  TGI: 1.19 µM
HCC-2998 colon
  TGI: 1.13 µM
SF-268 CNS
  TGI: 3.25 µM
BT-549 breast
  TGI: 4.99 µM
IGROV1 ovarian
  TGI: 2.05 µM
HOP-62 NSCLC
  TGI: 2.11 µM
RXF 393 renal
  TGI: 1.26 µM
OVCAR-5 ovarian
  TGI: 4.13 µM
MOLT-4 leukemia
  TGI: > 12.4 µM
PC-3 prostate
  TGI: 2.79 µM
HCT-116 colon
  TGI: 5.48 µM
SNB-19 CNS
  TGI: 2.13 µM
KM12 colon
  TGI: > 10.1 µM
EKVX NSCLC
  TGI: 2.56 µM
RPMI-8226 leukemia
  TGI: > 14.5 µM
HL-60(TB) leukemia
  TGI: 1.2 µM
HOP-92 NSCLC
  TGI: 3.93 µM
SK-OV-3 ovarian
  TGI: > 18.4 µM
UO-31 renal
  TGI: > 16.9 µM
K-562 leukemia
  TGI: > 50 µM
NCI-H23 lung
  TGI: > 19 µM
786-0 renal
  TGI: 1.2 µM
M14 melanoma
  TGI: 1.33 µM
A498 renal
  TGI: 5 µM
CCRF-CEM leukemia
  TGI: 6.01 µM
MDA-MB-231 breast
  TGI: > 50 µM
OVCAR-3 ovarian
  TGI: 8.29 µM
SN12C renal
  TGI: 2.91 µM
MDA-MB-435
  TGI: 1.24 µM
HS 578T breast
  TGI: > 50 µM
OVCAR-4 ovarian
  TGI: 7.83 µM
UACC-257 melanoma
  TGI: > 14.3 µM
NCI/ADR-RES ovarian
  TGI: > 50 µM
SK-MEL-28 melanoma
  TGI: > 15.5 µM
COLO 205 colon
  TGI: 0.858 µM
DU-145 prostate
  TGI: > 10.9 µM
SK-MEL-2 melanoma
  TGI: 4.07 µM
UACC-62 melanoma
  TGI: > 11.6 µM
SNB-75 CNS
  TGI: 1.56 µM
CAKI-1 renal
  TGI: 3.34 µM
TK-10 renal
  TGI: > 50 µM
ACHN renal
  TGI: 2.8 µM
NCI-H460 lung
  TGI: 1.34 µM
HCT-15 colon
  TGI: > 17.6 µM
SF-539 CNS
  TGI: 1.18 µM
T-47D breast
  TGI: 2.29 µM

## C[N+](C)([O-])Cc1cccc(NC(=O)c2ccc(C(=O)Nc3cccc(C[N+](C)(C)[O-])c3)cc2)c1
SW-620 colon
  TGI: > 100 µM
MALME-3M melanoma
  TGI: > 100 µM
HT29 colon
  TGI: > 100 µM
HCC-2998 colon
  TGI: > 100 µM
SF-268 CNS
  TGI: > 100 µM
BT-549 breast
  TGI: > 100 µM
IGROV1 ovarian
  TGI: > 100 µM
HOP-62 NSCLC
  TGI: > 100 µM
RXF 393 renal
  TGI: > 100 µM
OVCAR-5 ovarian
  TGI: > 100 µM
MOLT-4 leukemia
  TGI: > 100 µM
OVCAR-8 ovarian
  TGI: > 100 µM
PC-3 prostate
  TGI: > 100 µM
HCT-116 colon
  TGI: > 100 µM
MCF7 breast
  TGI: > 100 µM
A549 NSCLC
  TGI: > 100 µM
SNB-19 CNS
  TGI: > 100 µM
KM12 colon
  TGI: > 100 µM
EKVX NSCLC
  TGI: > 100 µM
RPMI-8226 leukemia
  TGI: > 100 µM
HL-60(TB) leukemia
  TGI: > 100 µM
HOP-92 NSCLC
  TGI: > 100 µM
SK-OV-3 ovarian
  TGI: > 100 µM
UO-31 renal
  TGI: > 100 µM
K-562 leukemia
  TGI: > 100 µM
U251 CNS
  TGI: > 100 µM
LOX IMVI melanoma
  TGI: > 100 µM
NCI-H23 lung
  TGI: > 100 µM
786-0 renal
  TGI: > 100 µM
M14 melanoma
  TGI: > 100 µM
NCI-H522 lung
  TGI: > 100 µM
CCRF-CEM leukemia
  TGI: > 100 µM
MDA-MB-231 breast
  TGI: > 100 µM
OVCAR-3 ovarian
  TGI: > 100 µM
SN12C renal
  TGI: > 100 µM
NCI-H226 lung
  TGI: > 100 µM
SR leukemia
  TGI: > 100 µM
OVCAR-4 ovarian
  TGI: > 100 µM
UACC-257 melanoma
  TGI: > 100 µM
SK-MEL-5 melanoma
  TGI: > 100 µM
NCI/ADR-RES ovarian
  TGI: > 100 µM
SK-MEL-28 melanoma
  TGI: > 100 µM
COLO 205 colon
  TGI: > 100 µM
DU-145 prostate
  TGI: > 100 µM
SK-MEL-2 melanoma
  TGI: > 100 µM
UACC-62 melanoma
  TGI: > 100 µM
SF-295 CNS
  TGI: > 100 µM
CAKI-1 renal
  TGI: > 100 µM
TK-10 renal
  TGI: > 100 µM
ACHN renal
  TGI: > 100 µM
NCI-H460 lung
  TGI: > 100 µM
HCT-15 colon
  TGI: > 100 µM
SF-539 CNS
  TGI: > 100 µM
T-47D breast
  TGI: > 100 µM

## N=C(N)c1ccc(-c2ccc(-c3ccc(Cl)cc3)s2)s1
SK-OV-3 ovarian
  GI50: 1.7 µM
  TGI: 3.15 µM
A498 renal
  GI50: 13 µM
  TGI: 45.3 µM
SR leukemia
  GI50: 0.322 µM
  TGI: > 100 µM
UACC-257 melanoma
  GI50: 2.78 µM
  TGI: 4.9 µM
SK-MEL-5 melanoma
  GI50: 3.16 µM
  TGI: 8.66 µM
DU-145 prostate
  GI50: 1.62 µM
  TGI: 2.98 µM

## CC(C)OC(=S)[S-].[Au+].c1ccc([PH+](c2ccccc2)c2ccccc2)cc1
RXF 393 renal
  GI50: 0.387 µM
  TGI: 1.48 µM
MCF7 breast
  GI50: 0.467 µM
  TGI: 2.66 µM
RPMI-8226 leukemia
  GI50: 0.747 µM
  TGI: 4.01 µM
HL-60(TB) leukemia
  GI50: 0.264 µM
  TGI: 1.36 µM
HOP-92 NSCLC
  GI50: 1.07 µM
  TGI: 2.25 µM
U251 CNS
  GI50: 0.419 µM
  TGI: 1.56 µM
LOX IMVI melanoma
  GI50: 0.478 µM
  TGI: 2.07 µM
M14 melanoma
  GI50: 0.986 µM
  TGI: 2.32 µM
NCI-H522 lung
  GI50: 0.176 µM
  TGI: 0.409 µM
OVCAR-3 ovarian
  GI50: 0.316 µM
  TGI: 1.05 µM
SF-539 CNS
  GI50: 1.24 µM
  TGI: 2.49 µM
